Values quoted from earlier work, collected in US6485765B1, “Lactational performance of dairy cattle” (Church & Dwight Co., Inc., priority 2000, dated 2002).

Test system: heat stressed dairy cows
Details: per every 1% increase in K, potassium carbonate as source of dietary K

## O=C([O-])[O-].[K+].[K+] [potassium carbonate]
  increase of fat-corrected milk: 8.9 lbs/day
